Experimental findings from patent US8217066B2, “Compounds as lysophosphatidic acid receptor antagonists” (Amira Pharmaceuticals, Inc., priority 2009, dated 2012) are described below.

One may read the pIC50 as the IC50 on a negative log10 scale, so that one unit is a factor of ten.

Test [1] has as its system A2058 human melanoma cells. In words: LPA1 chemotaxis assay. Format: cell-based. The settings on record: 100 nM LPA, read-out: inhibition of LPA-driven chemotaxis, IC50. The procedure: Chemotaxis of the A2058 human melanoma cells was measured using the Neuroprobe ChemoTx® System plates (8 μm pore size, 5.7 mm diameter sites). The filter sites were coated with 0.001% fibronectin (Sigma) in 20 mM Hepes, pH 7.4 and allowed to dry. A2058 cells were serum-starved for 24 hours, then harvested with Cell Stripper and resuspended in DMEM containing 0.1% fatty-acid-free bovine serum albumin (BSA) to a concentration of 1×10^6/ml. Cells were mixed with an equal volume of test compound (2×) in DMEM containing 0.1% fatty-acid-free BSA and incubated at 37° C. for 15 minutes. LPA (100 nM in DMEM containing 0.1% fatty-acid-free BSA) or vehicle was added to each well of the lower chamber and 50 μl of the cell suspension/test compound mix was applied to the upper portion of the ChemoTx plate. Plates were incubated at 37° C. for three hours and then the cells removed from the upper portion by rinsing with PBS and scraping. The filter was dried then stained with HEMA 3 Staining System (Fisher Scientific). The absorbance of the filter was read at 590 nm and IC50s were determined using Symyx Assay Explorer.

Another test concerns the target T1, human LPA1 (Homo sapiens, UniProt Q92633).
T1 construct: the full-length cDNA for human LPA1 was obtained by PCR of the reverse transcription reaction; expressed in transfected cells
In words: LPA1 calcium flux assay (HLPA1 Ca Flux). The note with it: CHO cells stably expressing human LPA1, stimulated with 10 nM LPA. It counts as cell-based. On the procedure:
A 1.1 kb cDNA encoding the human LPA1 receptor was cloned from human lung. Human lung RNA (Clontech Laboratories, Inc. USA) was reverse transcribed using the RETROscript kit (Ambion, Inc.) and the full-length cDNA for human LPA1 was obtained by PCR of the reverse transcription reaction. The nucleotide sequence of the cloned human LPA1 was determined by sequencing and confirmed to be identical to the published human LPA1 sequence (An et al. Biochem. Biophys. Res. Commun. 231:619 (1997). The cDNA was cloned into the pcDNA5/FRT expression plasmid and transfected in CHO cells using lipofectamine 2000 (Invitrogen Corp., USA). Clones stably expressing human LPA1 were selected using hygromycin and identified as cells that show Ca-influx in response to LPA.
Human LPA1 or LPA3 expressing CHO cells are seeded at 20,000-45,000 cells per well in a 96-well poly-D-lysine coated plate one or two days before the assay. Prior to the assay, the cells are washed once with PBS and then cultured in serum-free media overnight. On the day of the assay, a calcium indicator dye (Calcium 4, Molecular Devices) in assay buffer (HBSS with Ca^2+ and Mg^2+ and containing 20 mM Hepes and 0.3% fatty-acid free human serum albumin) is added to each well and incubation continued for 1 hour at 37° C. […] of test compounds in 2.5% DMSO are added to the cells and incubation continued at room temperature for 30 minutes. Cells are the stimulated by the addition of 10 nM LPA and intracellular Ca^2+ measured using the Flexstation 3 (Molecular Devices). IC50s are determined using Graphpad prism analysis of drug titration curves.
For orientation: Calcium flux is commonly read through the fluorescence of an indicator in the cells.

pIC50: −log10 of the molar value.

T1 sequence (Q92633 whole entry): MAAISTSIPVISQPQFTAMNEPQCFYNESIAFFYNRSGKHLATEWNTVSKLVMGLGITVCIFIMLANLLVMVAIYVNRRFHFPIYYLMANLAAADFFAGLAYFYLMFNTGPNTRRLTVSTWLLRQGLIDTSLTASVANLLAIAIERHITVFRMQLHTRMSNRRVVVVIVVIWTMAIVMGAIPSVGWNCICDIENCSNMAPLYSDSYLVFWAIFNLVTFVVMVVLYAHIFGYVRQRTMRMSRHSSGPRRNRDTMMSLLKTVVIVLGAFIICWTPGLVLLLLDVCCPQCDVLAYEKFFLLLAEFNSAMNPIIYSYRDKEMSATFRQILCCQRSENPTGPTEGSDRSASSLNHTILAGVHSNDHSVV

For the compound `Cc1noc(-c2ccc(-c3ccc(C4(C(=O)O)CC4)cc3)cc2)c1NC(C)CCc1ccccc1` (single isomer, unassigned) [Compound 51, 1-{4′-[3-Methyl-4-(1-methyl-3-phenyl-propylamino)-isoxazol-5-yl]-biphenyl-4-yl}-cyclopropanecarboxylic acid], the pIC50 in test [1] is > 7.00.

For the compound `Cc1noc(-c2ccc(-c3ccc(C4(C(=O)O)CC4)cc3)cc2)c1NC(C)CCc1cccc(Cl)c1` (single isomer, unassigned) [Compound 57, 1-(4′-{4-[3-(3-Chloro-phenyl)-1-methyl-propylamino]-3-methyl-isoxazol-5-yl}-biphenyl-4-yl)-cyclopropanecarboxylic acid], the pIC50 in test [1] was > 7.00.

Consider `Cc1noc(-c2ccc(-c3ccc(C4(C(=O)O)CC4)cc3)cc2)c1NC(C)CCc1ccccc1` (centres unmarked) [Compound 4, 1-{4′-[3-Methyl-4-(1-methyl-3-phenyl-propylamino)-isoxazol-5-yl]-biphenyl-4-yl}-cyclopropanecarboxylic acid], for which the pIC50 in test [1] is > 7.00.

As for `Cc1noc(-c2ccc(-c3ccc(C4(C(=O)O)CC4)cc3)cc2)c1CC(F)(F)CCc1ccccc1` [Compound 21, 1-{4′-[4-(2,2-Difluoro-4-phenyl-butyl)-3-methyl-isoxazol-5-yl]-biphenyl-4-yl}-cyclopropanecarboxylic acid], the negative logarithm of the IC50 (pIC50) on human LPA1 is > 6.52; in test [1], > 7.00.

In the case of `Cc1noc(-c2ccc(-c3ccc(C4(C(=O)O)CC4)cc3)cc2)c1NC(C)CCc1cccc(F)c1` (centres unmarked) [Compound 30, 1-(4′-{4-[3-(3-Fluoro-phenyl)-1-methyl-propylamino]-3-methyl-isoxazol-5-yl}-biphenyl-4-yl)-cyclopropanecarboxylic acid], the pIC50 is > 6.52 at human LPA1 and > 7.00 in test [1].

`Cc1noc(-c2ccc(-c3ccc(C4(C(=O)O)CC4)cc3)cc2)c1C(O)CSCc1ccccc1` (centres unmarked) [Compound 38, 1-{4′-[4-(2-Benzylsulfanyl-1-hydroxy-ethyl)-3-methyl-isoxazol-5-yl]-biphenyl-4-yl}-cyclopropanecarboxylic acid]: the pIC50 on human LPA1 was > 6.52; in test [1], > 7.00.

Take `Cc1noc(-c2ccc(-c3ccc(C4(C(=O)O)CC4)cc3)cc2)c1NC(C)CCc1cccc(Cl)c1` (centres unmarked) [Compound 41, 1-(4′-{4-[3-(3-Chloro-phenyl)-1-methyl-propylamino]-3-methyl-isoxazol-5-yl}-biphenyl-4-yl)-cyclopropanecarboxylic acid]: the pIC50 in test [1] was > 7.00.

Take `Cc1noc(-c2ccc(-c3ccc(C4(C(=O)O)CC4)cc3)cc2)c1C(O)COCc1ccccc1` (centres unmarked) [Compound 42, 1-{4′-[4-(2-Benzyloxy-1-hydroxy-ethyl)-3-methyl-isoxazol-5-yl]-biphenyl-4-yl}-cyclopropanecarboxylic acid]: the pIC50 in test [1] is > 7.00.

As to `Cc1noc(-c2ccc(-c3ccc(C4(C(=O)O)CC4)cc3)cc2)c1[C@H](O)CO[C@H](C)c1ccccc1` [Compound 49, 1-(4′-{4-[(5)-1-Hydroxy-2-((R)-1-phenyl-ethoxy)-ethyl]-3-methyl-isoxazol-5-yl}-biphenyl-4-yl)-cyclopropanecarboxylic acid], the pIC50 at human LPA1 was > 6.52; in test [1] it was > 7.00.

With `Cc1noc(-c2ccc(-c3ccc(C4(C(=O)O)CC4)cc3)cc2)c1NC(C)CCc1ccc(Cl)cc1` (centres unmarked) [Compound 54, 1-(4′-{4-[3-(4-Chloro-phenyl)-1-methyl-propylamino]-3-methyl-isoxazol-5-yl}-biphenyl-4-yl)-cyclopropanecarboxylic acid], the results for the pIC50 (at human LPA1; in test [1]) were > 6.52 and > 7.00, respectively.

Regarding `Cc1noc(-c2ccc(-c3ccc(C4(C(=O)O)CC4)cc3)cc2)c1[C@H](O)CSCc1ccccc1` [Compound 65, 1-{4′-[4-((S)-2-Benzylsulfanyl-1-hydroxy-ethyl)-3-methyl-isoxazol-5-yl]-biphenyl-4-yl}-cyclopropanecarboxylic acid], the pIC50 at human LPA1 was > 6.52; in test [1], > 7.00.
